In patent US20230391760A1, “HETEROCYCLIC GLP-1 AGONISTS” (Gasherbrum Bio, Inc., priority 2020, published 2023) one finds EC50 data, which are given here for eight compounds.

As a reminder, the EC50 is the concentration at which the effect is half-maximal. The low end stands for a more potent agent, the high end for a less potent agent.

Each structure is given as a SMILES string.

Chain of GLP-1 Receptor (P43220 24-463, species assumed): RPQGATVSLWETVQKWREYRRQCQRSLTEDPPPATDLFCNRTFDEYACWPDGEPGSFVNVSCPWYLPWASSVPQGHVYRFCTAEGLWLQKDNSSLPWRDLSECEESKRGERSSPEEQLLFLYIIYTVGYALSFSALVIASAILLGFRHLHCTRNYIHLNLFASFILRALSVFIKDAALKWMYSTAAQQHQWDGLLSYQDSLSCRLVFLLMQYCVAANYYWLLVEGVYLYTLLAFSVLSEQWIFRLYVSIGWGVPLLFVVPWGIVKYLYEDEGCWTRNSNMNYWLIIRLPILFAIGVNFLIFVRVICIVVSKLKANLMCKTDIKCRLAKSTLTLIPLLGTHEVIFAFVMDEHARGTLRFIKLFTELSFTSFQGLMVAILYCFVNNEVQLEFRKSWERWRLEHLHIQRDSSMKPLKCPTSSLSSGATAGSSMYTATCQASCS

This assay concerns the target GLP-1 Receptor (Homo sapiens, UniProt P43220). Put plainly: GLP-1R agonist cAMP stimulation assay (HEK293/GLP1R/CRE-LUC cells, cAMP dynamic 2 Kit). The following applies: HEK293/CRE-Luc cell line stably expressing the GLP-1 Receptor, 30 min at 37° C. It counts as cell-based. The method, boiled down:
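cAMP measured by HTRF competition (d2-labelled cAMP with cryptate antibody, 1 h, room temperature, protected from light). Before that, GLP1R/CRE-Luc HEK293 cells (1000/well) were exposed for 30 min at 37 °C to half-log compound dilutions in DPBS containing IBMX 0.5 mM and BSA 0.1%.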
As to `CC1(c2ccc(Cl)cc2)Oc2cccc(C3CCN(Cc4nc5cc(-c6noc(=O)[nH]6)cnc5n4C[C@@H]4CCO4)CC3)c2O1` (stereo partly drawn) [Compound 330a, 3-[2-({4-[2-(4-chlorophenyl)-2-methyl-2H-1,3-benzodioxol-4-yl]piperidin-1-yl}methyl)-3-{[(2S)-oxetan-2-yl]methyl}-3H-imidazo[4,5-b]pyridin-6-yl]-4,5-dihydro-1,2,4-oxadiazol-5-one], the EC50 came out at 0.97 nM.

`CC1(c2ccc(Cl)cn2)Oc2cccc(C3CCN(Cc4nc5cc(-c6noc(=O)[nH]6)cnc5n4C[C@@H]4CCO4)CC3)c2O1` (stereo partly drawn) [Compound 332a, 3-[2-({4-[2-(5-chloropyridin-2-yl)-2-methyl-2H-1,3-benzodioxol-4-yl]piperidin-1-yl}methyl)-3-{[(2S)-oxetan-2-yl]methyl}-3H-imidazo[4,5-b]pyridin-6-yl]-4,5-dihydro-1,2,4-oxadiazol-5-one] displayed an EC50 of 1.6 nM.

For the compound `C[C@]1(c2ccc(Cl)cc2F)Oc2cccc(C3CCN(Cc4nc5cc(-c6noc(=O)[nH]6)cnc5n4CC4(C#N)CC4)CC3)c2O1` [Compound 334a, 1-{[2-({4-[(2S)-2-(4-chloro-2-fluorophenyl)-2-methyl-2H-1,3-benzodioxol-4-yl]piperidin-1-yl}methyl)-6-(5-oxo-4,5-dihydro-1,2,4-oxadiazol-3-yl)-3H-imidazo[4,5-b]pyridin-3-yl]methyl}cyclopropane-1-carbonitrile], the 50% effective concentration (EC50) came out at 0.25 nM.

Take `CC1(c2ccc(C#N)cc2F)Oc2cccc(C3CCN(Cc4nc5cc(-c6noc(=O)[nH]6)ncc5n4C[C@@H]4CCO4)CC3)c2O1` (stereo partly drawn) [Compound 341a, 3-fluoro-4-(2-methyl-4-{1-[(3-{[(2S)-oxetan-2-yl]methyl}-6-(5-oxo-4,5-dihydro-1,2,4-oxadiazol-3-yl)-3H-imidazo[4,5-c]pyridin-2-yl)methyl]piperidin-4-yl}-2H-1,3-benzodioxol-2-yl)benzonitrile]: the EC50 is 0.026 nM.

`C[C@]1(c2ccc(C#N)cc2F)Oc2cccc(C3CCN(Cc4nc5cc(-c6n[nH]c(C(F)(F)F)n6)ncc5n4C[C@@H]4CCO4)CC3)c2O1` [Compound 342a, 3-fluoro-4-[(2S)-2-methyl-4-{1-[(3-{[(2S)-oxetan-2-yl]methyl}-6-[5-(trifluoromethyl)-4H-1,2,4-triazol-3-yl]-3H-imidazo[4,5-c]pyridin-2-yl)methyl]piperidin-4-yl}-2H-1,3-benzodioxol-2-yl]benzonitrile]: the EC50 was 0.0064 nM.

As to `CC1(c2ccc(Cl)cn2)Oc2cccc(C3CCN(Cc4nc5cc(-c6noc(=O)[nH]6)ncc5n4C[C@@H]4CCO4)CC3)c2O1` (stereo partly drawn) [Compound 343a, 3-[2-({4-[2-(5-chloropyridin-2-yl)-2-methyl-2H-1,3-benzodioxol-4-yl]piperidin-1-yl}methyl)-3-{[(2S)-oxetan-2-yl]methyl}-3H-imidazo[4,5-c]pyridin-6-yl]-4,5-dihydro-1,2,4-oxadiazol-5-one], the response was half-maximal at 0.079 nM (EC50).

Turning to `CC1(c2ccc(Cl)cn2)Oc2cccc(C3CCN(Cc4nc5cc(-c6n[nH]c(C(F)(F)F)n6)ncc5n4C[C@@H]4CCO4)CC3)c2O1` (stereo partly drawn) [Compound 344a, 5-chloro-2-(2-methyl-4-{1-[(3-{[(2S)-oxetan-2-yl]methyl}-6-[5-(trifluoromethyl)-4H-1,2,4-triazol-3-yl]-3H-imidazo[4,5-c]pyridin-2-yl)methyl]piperidin-4-yl}-2H-1,3-benzodioxol-2-yl)pyridine], the EC50 came to 0.022 nM.

Turning to `C[C@]1(c2ccc(Cl)cc2F)Oc2cccc(C3CCN(Cc4nc5cc(-c6nnc(C(F)(F)F)[nH]6)ncc5n4CC4(C#N)CC4)CC3)c2O1` [Compound 345a, 1-{[2-({4-[(2S)-2-(4-chloro-2-fluorophenyl)-2-methyl-2H-1,3-benzodioxol-4-yl]piperidin-1-yl}methyl)-6-[5-(trifluoromethyl)-4H-1,2,4-triazol-3-yl]-3H-imidazo[4,5-c]pyridin-3-yl]methyl}cyclopropane-1-carbonitrile], the EC50 amounted to 0.014 nM.
